Where a SMILES comes first, the peptide text is derived from it. The star is where a group is joined. Cbz = O=C(OCc1ccccc1)*
Key:
NF-κB = assay: NF-κB-Luc gene reporter assay in breast cancer cell lines after Pin1 inhibition; assay type: cell-based; settings: BT20 (ER-negative) and MCF-7 (ER-positive) cells, both cell lines; 48 hrs after transfection
Excerpt: (C) Inhibition of NF-κB activation and NF-κB DNA binding activity in breast cancer cell lines by downregulation of Pin 1. Two breast cancer cell lines were transfected with Pin1-specific or non-specific siRNA together with a NF-kB-Luc or TK-Luc reporter construct for 48 hrs, followed by assaying luciferase activity and Pin1 protein levels (insets) (C) or assaying NF-κB DNA binding activity by EMSA using NF-κB or OCT1 consensus oligonucleotides (D).
Approximately 60% confluent cells were transfected in triplicate in 12 well dishes with Effectene (Qiagen). Gene reporter assays were performed with Dual-Luciferase reporter assay system (Promega) at 24-36 hr after transfection as described previously (Wulf et al., 2001). pRL-TK (Promega) was used as an internal control for transfection efficiency. All results are expressed as X±SD of independent triplicate cultures. For gene reporter assays in breast cancer cell line, cells were transfected with pSuppressor Neo vector encoding Pin1 specific siRNA (5′-[…]-3′) or non-specific siRNA (5′-[…]-3′) together with Ig-kB luciferase construct and pRL-TK. After 48 hr, cells were lysed and subjected to gene reporter assay.
Given that the NF-κB activation is regulated by a series of phosphorylation events, it was investigated whether Pin1 is involved in this regulation. […]

Pin1 and p65 = assay: GST-Pin1 pulldown of Xpress-tagged p65 from 293T cells; assay type: binding; settings: 293T cells treated with TNF-α for 3 hrs vs PBS
Description: (D) Enhancement of Pin1 and p65 binding by TNF-α. 293T cells expressing Xpress-tagged p65 were treated with PBS or TNF-αfor 3 hrs, followed by GST-pull down experiment and immunoblot with anti-Xpress antibody.
(§1) Cells were arrested at the G1/S phase or the mitotic phase, as describe previously. Total cells, 293T or HeLa, were lysed with GST-pulldown buffer (50 mM Hepes pH7.4, 150 mM NaCl, 10% glycerol, 1% Triton-X100, 1.5 mM MgC12, 1 mM EGTA, 100 mM NaF, 1 mM Na3VO4, 1 mM DTT and 0.5 μg/ml Leupeptin, 1.0 μg/ml Pepstatin, 0.2 mM PMSF) and incubated were incubated with 20 μl of agarose beads containing GST-Pin1 or GST at 4° C. for 2 hr, as described previously (Ryo et al., 2001). The precipitated proteins were washed three times with wash buffer containing and subjected to SDS-PAGE. For immunoprecipitation, cells were harvested at 24 hr after transfection and lysed with NP-40 lysis buffer (10 mM Tris HCl pH7.5, 100 mM NaCl, 0.5% NP-40, 1 mM Na3VO4, 0.5 μg/ml Leupeptin, 1.0 μg/ml Pepstatin, 0.2 mM PMSF). Cell lysates were incubated for 1 hr with Protein A/G Sepahrose/mouse IgG complexes.
Pin1 binds and isomerizes specific pSer/Thr-Pro motifs in certain phosphoproteins. To explore the molecular mechanism of NF-kB activation by Pin1, it was investigated as to whether any components of NF-kB or IkBα are Pin1 substrates. […]

p65-T254A [1] = assay: Co-immunoprecipitation of Pin1 with Xpress-tagged p65-T254A in 293T cells after proteasome inhibition; assay type: cell-based; settings: 20 μM MG-132 for 12 hr
Description: (G) Failure of Pin1 to bind p65-T254A. 293T cells were co-transfected with Pin1 and Xpress-tagged p65 or its T254A mutant. After cells were incubated with 20 μM MG-132 for 12 hr, they were subjected to immunoprecipitation analysis with anti-Xpress antibody, followed by immunoblot with anti-p65 or anti-Pin1 antibodies.
as §1
Three truncation mutants of p65 were generated and subjected them to the GST-pulldown assay. […]

p65-T254A [2] = assay: Protein degradation assay (cycloheximide chase, immunoblot) of p65-T254A in 293T cells; assay type: cell-based; set-up: dose or concentration left out as unconfirmed
Description: (A, B) Stabilization of p65-T254A by a proteosome inhibitor. 293T cells expressing Xpress-p65-T254A or Xpress-LacZ were treated with cycloheximide and MG-132 ([…]) or the solvent DMSO for the times indicated, followed by immunoblot with anti-Xpress antibody (A), followed by semi-quantification with Imagequant (B). (C) Ubiquitination of p65 in vitro. In vitro translated 35 S-labeled p65 was incubated with ubiquitin in the presence or absence of E1 and UbcH5a for times indicated, followed by separation on SDS-PAGE and autoradiography. (D) Ubiquitination of the GST-p65 fragment B, but A or C. GST-p65 truncation mutants (FIG. 3D) were incubated with HeLa S-100 extracts, ubiquitin, E1 and either UbcH5a or UbcH6 for 3 hrs, followed by GST pulldown and immunoblotting with anti-ubiquitin antibody. (E) Ubiquitination of GST-p65 fragment B via UbcH5a. GST-p65-truncated mutant B was subjected to ubiquitination assay in vitro using different E2 enzymes.
293T cells were transfected with Xpress-tagged p65. A plasmid encoding Xpress-LacZ was used as a transfection control. […] Cells were harvested at each time points, and total lysates were analyzed by immunoblotting with anti-Xpress antibody (Invitrogene). The blots were scanned and semi-quantified by using the software NIH image 1.6.2, as described (Ryo et al., 2001). […]

p65 [3] = assay: p65 protein stability in Pin1−/− MEFs; assay type: cell-based, mouse
Excerpt: The ability of Pin1 to regulate the protein stability of p65 led to another surprising finding in this study, which is the ubiquitin-mediated proteolysis of p65. Although the ubiquitin-mediated proteolysis of IkBα has been well characterized (Baeuerle and Baltimore, 1996; Ghosh et al., 1998), a similar regulation has not been previously described for NF-kB itself. […] Furthermore, even in Pin1+/+ cells, the point mutation in p65 (T254A) that disrupts its binding to Pin1 converts p65 from a stable into an extremely unstable protein due to rapid nuclear export and subsequent protein degradation.

p65 [4] = assay: In vivo ubiquitination assay of p65 in HeLa cells (His-ubiquitin, Ni-agarose pulldown); assay type: cell-based; settings: His-tagged ubiquitin, MG-132 for 16 hr
Description: (F) Ubiquitination of p65 in vivo. HeLa cells expressing p65, UbcH5a and His-tagged ubiquitin or vector controls were treated with MG-132 or DMSO control for 16 hr, followed by lysis using sonication in a buffer containing 6M urea. Ubiquitin-conjugated proteins were captured with […] beads and subjected to immunoblot with anti-p65 antibody.
To examine which region of the p65 molecule can be ubiquitinated, different GST-p65 fragments (FIG. 3D) were incubated with S100 HeLa cells extracts, ubiquitin, E1 and UbcH5a or UbcH6, and then purified GST-p65 fragments using GST beads, followed by immunoblot with anti-ubiquitin antibodies. Although neither the fragment A nor C was ubiquitinated, fragment B, which contains the Pin1 binding Thr254-pro motif (FIG. 3E), was poly-ubiquitinated with UbcH5a, but not with UbcH6 (FIG. 6D). To examine whether other E2 enzymes could catalyze the ubiquitination of p65 in vitro, we incubated recombinant GST-p65 fragment B with in vitro ubiquitination assay using different E2 enzymes. Out of the 8 E2 enzymes examined, only UbcH5a effectively conjugated multiple ubiquitin molecules into p65 (FIG. 6E). […] However, no ubiquitinated p65 was detected in the absence of His ubiquitin and/or MG-132 (FIG. 6F), indicating the specificity of the in vivo ubiquitination assay.

## siRNA: pSuppressor Neo vector encoding Pin1 specific siRNA (5′-GCCACATCACTAACGCCAGC-3′) (expressed from pSuppressor Neo vector)
NF-κB
  transcriptional activity of NF-κB-Luc: significantly suppressed the transcriptional activity of NF-κB-Luc

## TNF-α
Pin1 and p65
  increase of Pin1-p65 binding: ~3 fold

## CC(C)C[C@@H](C=O)NC(=O)[C@H](CC(C)C)NC(=O)[C@H](CC(C)C)NC(=O)OCc1ccccc1 [MG-132] (Cbz-Leu-Leu-Leu-aldehyde)
p65-T254A [1]
  stability of p65-T254A: p65-T254A was stable
p65-T254A [2]
  half-life of p65-T254A protein: strikingly prolonged the half-life of p65-T254A protein
p65 [3]
  stability of p65: could be stabilized
p65 [4]
  poly-ubiquitination of p65: p65 was substantially poly-ubiquitinated

— US20050147608A1, “Novel regulatory mechanisms of NF-kappaB” (Beth Israel Deaconess Medical Center, Inc., priority 2003, published 2005)
